From patent US12343347B2 (Biohaven Pharmaceutical Holding Company Ltd., priority 2012, dated 2025)

What was measured:
Assay type in all cases: in vitro ADME
[1] = Metabolic stability in pooled mouse liver microsomes; conditions: mouse liver microsomes 0.5 mg/mL, 1 uM, NADPH, 37° C.
Method: (§1) Metabolic Stability: In vitro metabolic stability was determined in pooled mouse or human liver microsomes (BD Gentest) at a protein concentration of 0.5 mg/mL in reaction buffer (100 mM KH2PO4, pH 7.4 and 12 mM MgCl2). Each drug candidate was added to a final concentration of 1 uM. This mixture was pre-warmed to 37° C. for 10 minutes prior to starting the reaction with the addition of β-Nicotinamide adenine dinucleotide 2′-phosphate reduced (NADPH) to a final concentration of 1 mM. A parallel incubation lacking NADPH served as the control. After incubation for 30 min at 37° C., the reactions were quenched by the addition of acetonitrile containing 0.1% formic acid and internal standard, vortex mixed for 2 minutes and centrifuged at 4000 rpm for 10 minutes to pellet the precipitated protein. The resulting supernatant containing the drug candidate and its potential metabolites was diluted 5-fold with water containing 0.1% formic acid and submitted to LC-MS/MS analysis. […]
(§2) LC-MS/MS Analysis: An aliquot from each incubation was analyzed by LC-MS/MS with SRM detection in the positive ionization mode using an ABSciex API 5500 QTrap Mass Spectrometer interfaced via the ABSciex Turbo V IonSpray source (ESI) to an Eksigent ExpressHT LC system. […] A fast gradient, from 15 to 85% organic in 2.5 minutes, with run time of 5.0 minutes, and flow rate of 50 uL/min was utilized. Peak areas were integrated using MultiQuant v2.0 software from ABSciex.

[2] = Plasma stability in fresh mouse plasma; conditions: 1 uM, 37° C.
Method: (§3) Plasma Stability: Assessment of plasma stability was carried out by individual incubations of drug candidates in fresh mouse or human control plasma at a concentration of 1 uM for 1 hour at 37° C. After which, the samples were de-proteinized by addition of 2 volumes of acetonitrile containing 0.1% formic acid and internal standard, vortex mixed for 2 minutes and centrifuged at 4000 rpm for 10 minutes to pellet precipitated protein. The resulting supernatant containing the drug candidates was diluted 5-fold with water containing 0.1% formic acid and submitted to LC-MS/MS analysis. All determinations were done in triplicate. […]
as §2

[3] = Plasma stability in fresh human plasma; conditions: 1 uM, 37° C.
Method: as §3, §2

[4] = Metabolic stability in pooled human liver microsomes; conditions: human liver microsomes 0.5 mg/mL, 1 uM, NADPH, 37° C.
Method: as §1, §2

[5] = Stability in Simulated Intestinal Fluid (SIF); conditions: SIF:acetonitrile 9:1, 0.01 mg/mL, 37° C.
Method: (§4) Stability in Simulated Gastric Fluid (SGF) and Simulated Intestinal Fluid (SIF). Procedure from Baudy et. al. (J. Med. Chem. 2009, 52, 771-778) used. The physiological stability of pro-drugs was determined by examining the stability of the compound in SGF, and SIF at 37° C. The compounds were prepared in a 9:1 mixture of the appropriate test component (SGF, SIF) and acetonitrile to a final concentration of 0.01 mg/mL. The samples were thoroughly mixed and maintained at 37° C. Each sample was injected consecutively onto an Agilent 1100 system (Luna C18, 3 μm, 50 mm×3 mm; 1 mL/min; mobile phase of 0.1% trifluoroacetic acid in water/0.1% trifluoroacetic acid in acetonitrile) after a 3 h period. The percent remaining of pro-drug was calculated by comparing the area of pro-drug compound versus riluzole generated. The identities of the parent compounds and conversion products were confirmed by LC/MS.

[6] = Stability in Simulated Gastric Fluid (SGF); conditions: SGF:acetonitrile 9:1, 0.01 mg/mL, 37° C.
Method: as §4

Row | SMILES | Metabolic Stability mouse (30 minutes), percent of pro-drug metabolized to riluzole [1] [%] | Plasma Stability mouse (1 hour), percent of pro-drug metabolized to riluzole [2] [%] | Plasma Stability Human (1 hour), percent of pro-drug metabolized to riluzole [3] [%] | Metabolic Stability human (30 minutes), percent of pro-drug metabolized to riluzole [4] [%] | SIF (3 hours), percent of pro-drug metabolized to riluzole [5] [%] | SGF (3 hours), percent of pro-drug metabolized to riluzole [6] [%]
1 | NCC(=O)Nc1nc2ccc(OC(F)(F)F)cc2s1 [Cpd 1, 2-Amino-N-(6-trifluoromethoxy-benzothiazol-2-yl)-acetamide] | 4 | 11 | 3 | 7 | – | –
2 | C[C@@H](N)C(=O)Nc1nc2ccc(OC(F)(F)F)cc2s1 [Cpd 2, (R)-2-Amino-N-(6-trifluoromethoxy-benzothiazol-2-yl)-propionamide] | 10 | 36 | 15 | 4 | 50 | 0
3 | N[C@H](Cc1ccccc1)C(=O)Nc1nc2ccc(OC(F)(F)F)cc2s1 [Cpd 4, (R)-2-Amino-3-phenyl-N-(6-trifluoromethoxy-benzothiazol-2-yl)-propionamide] | 12 | 47 | 6 | 18 | 0 | 3
4 | N[C@H](COCc1ccccc1)C(=O)Nc1nc2ccc(OC(F)(F)F)cc2s1 [Cpd 5, (R)-2-Amino-3-benzyloxy-N-(6-trifluoromethoxy-benzothiazol-2-yl)-propionamide] | 24 | 25 | 3 | 0 | – | –
5 | C[C@H](N)C(=O)Nc1nc2ccc(OC(F)(F)F)cc2s1 [Cpd 7, (S)-2-Amino-N-(6-trifluoromethoxy-benzothiazol-2-yl)-propionamide] | 1 | 28 | 10 | 0 | 50 | 0
6 | N[C@@H](Cc1ccccc1)C(=O)Nc1nc2ccc(OC(F)(F)F)cc2s1 [Cpd 9, (S)-2-Amino-3-phenyl-N-(6-trifluoromethoxy-benzothiazol-2-yl)-propionamide] | 2 | 0 | 7 | 0 | – | –
7 | N[C@@H](COCc1ccccc1)C(=O)Nc1nc2ccc(OC(F)(F)F)cc2s1 [Cpd 10, (S)-2-Amino-3-benzyloxy-N-(6-trifluoromethoxy-benzothiazol-2-yl)-propionamide] | 0 | 52 | 9 | 15 | 0 | 0

Other lines, results leading:

Row | Metabolic Stability mouse (30 minutes), percent of pro-drug metabolized to riluzole [1] [%] | Plasma Stability mouse (1 hour), percent of pro-drug metabolized to riluzole [2] [%] | Plasma Stability Human (1 hour), percent of pro-drug metabolized to riluzole [3] [%] | Metabolic Stability human (30 minutes), percent of pro-drug metabolized to riluzole [4] [%] | SIF (3 hours), percent of pro-drug metabolized to riluzole [5] [%] | SGF (3 hours), percent of pro-drug metabolized to riluzole [6] [%] | SMILES
8 | 40 | 45 | 11 | 6 | 40 | 0 | CC(C)[C@H](N)C(=O)Nc1nc2ccc(OC(F)(F)F)cc2s1 [Cpd 11, (S)-2-Amino-3-methyl-N-(6-trifluoromethoxy-benzothiazol-2-yl)-butyramide]
9 | 10 | 0 | 15 | 0 | 0 | 0 | COC(=O)Nc1nc2ccc(OC(F)(F)F)cc2s1 [Cpd 12, (6-Trifluoromethoxy-benzothiazol-2-yl)-carbamic acid methyl ester]
10 | 8 | 0 | 0 | 7 | 0 | 0 | CCOC(=O)Nc1nc2ccc(OC(F)(F)F)cc2s1 [Cpd 13, (6-Trifluoromethoxy-benzothiazol-2-yl)-carbamic acid ethyl ester]
11 | 15 | 0 | 0 | 34 | 0 | 0 | CCCOC(=O)Nc1nc2ccc(OC(F)(F)F)cc2s1 [Cpd 14, (6-Trifluoromethoxy-benzothiazol-2-yl)-carbamic acid propyl ester]
12 | 53 | 9 | 0 | 13 | 0 | 0 | CCCCOC(=O)Nc1nc2ccc(OC(F)(F)F)cc2s1 [Cpd 15, (6-Trifluoromethoxy-benzothiazol-2-yl)-carbamic acid butyl ester]
13 | 23 | 0 | 0 | 14 | 0 | 5 | CC(C)COC(=O)Nc1nc2ccc(OC(F)(F)F)cc2s1 [Cpd 16, (6-Trifluoromethoxy-benzothiazol-2-yl)-carbamic acid isobutyl ester]
14 | – | – | – | – | – | 0 | CCCCCCOC(=O)Nc1nc2ccc(OC(F)(F)F)cc2s1 [Cpd 17, (6-Trifluoromethoxy-benzothiazol-2-yl)-carbamic acid hexyl ester]
15 | 13 | 3 | 0 | 10 | 0 | 0 | CN(C)CCOC(=O)Nc1nc2ccc(OC(F)(F)F)cc2s1 [Cpd 18, (6-Trifluoromethoxy-benzothiazol-2-yl)-carbamic acid 2-dimethylamino-ethyl ester]
16 | – | – | – | – | 60 | 0 | O=C(CCC(=O)Nc1nc2ccc(OC(F)(F)F)cc2s1)NCCN1CCOCC1 [Cpd 24, N-(2-Morpholin-4-yl-ethyl)-N′-(6-trifluoromethoxy-benzothiazol-2-yl)-succinamide]
17 | – | – | – | – | 50 | 0 | NCC1(CC(=O)Nc2nc3ccc(OC(F)(F)F)cc3s2)CCCCC1 [Cpd 29, 2-(1-Aminomethyl-cyclohexyl)-N-(6-trifluoromethoxy-benzothiazol-2-yl)-acetamide]
